Assays:
oxoprolinase [1] = target: T1, oxoprolinase (Homo sapiens, UniProt O14841); assay: 13C-OTC breath test, metabolic rate index with and without acetaminophen; type: in vivo; conditions: for Metabolic Rate Index, ACE+: 2 gm acetaminophen one hour prior to OTC; for Metabolic Rate Index, BASAL: oral 13C-OTC 1.5 mg/kg alone
T1 construct: Seven healthy volunteers (ages 22-39) each participated in two studies; from tissue; host or cells: whole body of human volunteers (oral dose, breath test)
T1 sequence (O14841 1-1288): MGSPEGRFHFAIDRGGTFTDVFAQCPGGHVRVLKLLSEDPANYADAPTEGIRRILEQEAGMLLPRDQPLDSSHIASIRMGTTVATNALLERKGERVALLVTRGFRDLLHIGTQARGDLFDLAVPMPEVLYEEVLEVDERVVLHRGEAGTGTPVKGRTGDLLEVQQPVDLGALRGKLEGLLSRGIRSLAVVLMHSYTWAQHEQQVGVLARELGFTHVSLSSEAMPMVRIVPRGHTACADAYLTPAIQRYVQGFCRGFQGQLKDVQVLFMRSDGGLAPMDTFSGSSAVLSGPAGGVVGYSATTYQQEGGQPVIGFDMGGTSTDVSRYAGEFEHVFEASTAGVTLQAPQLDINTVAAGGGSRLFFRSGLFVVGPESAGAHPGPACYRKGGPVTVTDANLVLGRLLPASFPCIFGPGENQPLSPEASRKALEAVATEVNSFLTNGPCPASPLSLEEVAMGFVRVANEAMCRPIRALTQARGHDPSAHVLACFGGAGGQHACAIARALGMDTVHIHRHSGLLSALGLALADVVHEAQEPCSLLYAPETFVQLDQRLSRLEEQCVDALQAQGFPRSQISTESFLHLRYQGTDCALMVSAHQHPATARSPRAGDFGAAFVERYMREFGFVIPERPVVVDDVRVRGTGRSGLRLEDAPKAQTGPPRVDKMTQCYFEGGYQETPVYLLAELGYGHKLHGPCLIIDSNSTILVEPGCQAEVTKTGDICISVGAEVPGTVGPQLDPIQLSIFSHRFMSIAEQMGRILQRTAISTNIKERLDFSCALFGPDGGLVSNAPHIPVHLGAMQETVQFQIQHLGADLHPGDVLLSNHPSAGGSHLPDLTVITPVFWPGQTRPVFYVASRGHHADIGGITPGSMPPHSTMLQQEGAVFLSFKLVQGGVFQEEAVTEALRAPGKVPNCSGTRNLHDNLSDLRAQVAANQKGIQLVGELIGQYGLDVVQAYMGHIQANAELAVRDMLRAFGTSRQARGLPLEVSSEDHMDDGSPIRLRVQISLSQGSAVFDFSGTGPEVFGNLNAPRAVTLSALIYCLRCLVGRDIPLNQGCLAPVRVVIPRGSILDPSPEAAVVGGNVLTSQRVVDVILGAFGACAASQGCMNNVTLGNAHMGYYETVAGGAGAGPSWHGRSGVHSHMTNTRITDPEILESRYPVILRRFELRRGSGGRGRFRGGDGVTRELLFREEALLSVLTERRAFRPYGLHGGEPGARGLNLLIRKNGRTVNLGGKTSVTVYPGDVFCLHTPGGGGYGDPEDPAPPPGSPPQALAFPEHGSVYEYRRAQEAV
Experimental: Seven healthy volunteers (ages 22-39) each participated in two studies. After three days on a weight maintaining diet, each participant was given a drink containing ^13C-labelled OTC (1.5 mg/kg), following which blood and expired breath were sampled frequently. In the first test, each participant received the OTC alone. In the second study at least one week later, each participant ingested 2 gm acetaminophen one hour prior to the OTC drink. Expired breath samples were analyzed for the ^13C enrichment (APE) of CO2, and expressed as isotopic enrichment in atom per cent excess (APE×1000) versus time, in the usual manner and in accordance with the general protocol described in Example I. A second panel of probands (ages 53-73) were tested in a similar manner.
From the pattern of label enrichment, at least two types of kinetic processes are apparent, one is absorption, since the metaprobe was dispensed orally, and the other disposition.
Deconvolution of this model by equation transformation and coefficient matching (Wagner, 1993) afforded separate kinetic measurements for the post absorptive metabolism of OTC in the metabolic compartment, and this was expressed as a fractional catabolic rate (Lassen and Perl, 1979). Lastly, the per cent of metaprobe dose recovered in breath was computed from the cumulative integral of the ^13CO2 enrichment versus time plot multiplied by the CO2 production rate for each proband, which in these experiments were measured by indirect calorimetry (but can also be estimated from formulas that have been proven to correlate an individual's height, weight, age and gender with CO2 production). The metabolic index for OTC utilization by oxoprolinase was then computed by the simple expedient of multiplying the dose of metaprobe by the per cent recovery and then by the fractional catabolic rate.
The data from the validating trial in this Example III all corroborate the biochemical hypothesis concerning the OTC metaprobe's mode of action as an indicator of oxoprolinase activity and, therefore, its utility as a surrogate indicator for glutathione production capacity. The results, which are expressed in terms of nanomoles of OTC metabolized per kilogram body weight per minute for the basal condition (BASAL), post acetaminophen (ACE+), and the stimulatory difference between ACE+ and BASAL (STIM) are shown in Table 5.

oxoprolinase [2] = target: T2, oxoprolinase (Rattus norvegicus, UniProt P97608); conditions: enzymatic assay; cited from earlier work
T2 sequence (P97608 1-1288): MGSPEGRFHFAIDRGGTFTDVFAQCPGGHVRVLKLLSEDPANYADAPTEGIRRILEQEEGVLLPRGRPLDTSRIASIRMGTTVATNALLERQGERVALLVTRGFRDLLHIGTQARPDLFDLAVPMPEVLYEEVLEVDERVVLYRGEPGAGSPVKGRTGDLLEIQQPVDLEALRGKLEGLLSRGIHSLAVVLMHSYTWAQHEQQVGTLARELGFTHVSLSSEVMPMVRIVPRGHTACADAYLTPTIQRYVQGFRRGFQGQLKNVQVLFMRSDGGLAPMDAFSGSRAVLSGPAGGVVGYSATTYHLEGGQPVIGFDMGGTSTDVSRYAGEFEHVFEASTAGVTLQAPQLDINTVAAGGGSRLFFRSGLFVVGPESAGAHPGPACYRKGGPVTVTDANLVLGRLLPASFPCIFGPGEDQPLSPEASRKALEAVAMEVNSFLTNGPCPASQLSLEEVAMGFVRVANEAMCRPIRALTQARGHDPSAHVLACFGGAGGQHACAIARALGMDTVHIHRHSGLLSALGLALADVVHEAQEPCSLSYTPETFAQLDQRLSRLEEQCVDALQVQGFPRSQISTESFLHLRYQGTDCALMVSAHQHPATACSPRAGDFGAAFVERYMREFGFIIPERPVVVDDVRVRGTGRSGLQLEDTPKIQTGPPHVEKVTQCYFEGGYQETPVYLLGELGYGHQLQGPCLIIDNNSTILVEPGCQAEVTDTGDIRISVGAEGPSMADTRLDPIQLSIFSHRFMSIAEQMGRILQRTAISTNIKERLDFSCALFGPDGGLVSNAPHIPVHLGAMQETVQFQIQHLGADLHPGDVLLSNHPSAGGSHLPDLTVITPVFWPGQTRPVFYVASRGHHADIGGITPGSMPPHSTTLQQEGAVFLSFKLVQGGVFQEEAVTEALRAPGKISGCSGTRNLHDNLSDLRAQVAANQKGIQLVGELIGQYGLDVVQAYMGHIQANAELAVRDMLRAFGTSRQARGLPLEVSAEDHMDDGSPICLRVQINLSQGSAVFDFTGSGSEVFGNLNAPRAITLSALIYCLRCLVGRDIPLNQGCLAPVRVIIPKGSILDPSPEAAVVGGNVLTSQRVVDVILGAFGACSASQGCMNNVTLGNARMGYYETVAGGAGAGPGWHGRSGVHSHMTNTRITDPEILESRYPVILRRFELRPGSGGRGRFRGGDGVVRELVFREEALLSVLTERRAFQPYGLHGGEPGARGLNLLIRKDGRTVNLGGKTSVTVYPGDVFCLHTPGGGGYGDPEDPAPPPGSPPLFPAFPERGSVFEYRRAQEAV

[3] = target: T3, cystathionine synthase (CS) (Oryctolagus cuniculus, UniProt Q9N0V7); conditions: male, New Zealand, rabbit, in vivo, iv, 2 mg/kg
T3 sequence (Q9N0V7 1-551): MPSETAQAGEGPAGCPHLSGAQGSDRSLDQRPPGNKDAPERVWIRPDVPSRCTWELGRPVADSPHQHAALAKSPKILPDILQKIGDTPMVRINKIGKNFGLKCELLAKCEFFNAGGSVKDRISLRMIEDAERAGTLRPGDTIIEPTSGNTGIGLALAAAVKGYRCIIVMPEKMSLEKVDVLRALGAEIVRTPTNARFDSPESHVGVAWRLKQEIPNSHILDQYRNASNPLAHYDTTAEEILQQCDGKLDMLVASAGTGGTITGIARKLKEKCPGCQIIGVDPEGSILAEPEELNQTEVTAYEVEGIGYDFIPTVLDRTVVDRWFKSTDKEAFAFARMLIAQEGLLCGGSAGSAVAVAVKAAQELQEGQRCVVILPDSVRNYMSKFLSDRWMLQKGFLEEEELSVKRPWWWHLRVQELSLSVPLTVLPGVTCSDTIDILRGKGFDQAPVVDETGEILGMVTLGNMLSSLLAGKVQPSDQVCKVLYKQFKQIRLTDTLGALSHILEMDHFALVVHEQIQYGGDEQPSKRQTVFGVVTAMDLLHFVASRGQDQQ

[4] = target: T3, cystathionine synthase (CS); assay: CS gateway enzyme breath test with homocysteine metaprobe, basal and after methionine load; conditions: n = 4

Row | Metabolic Rate Index, ACE+ (oxoprolinase [1]; ALL (22-73 yrs., n = 12)) [nmol/kg/min] | Metabolic Rate Index, ACE+ (oxoprolinase [1]; OLD (53-73 yrs., n = 5)) [nmol/kg/min] | Metabolic Rate Index, ACE+ (oxoprolinase [1]; YOUNG (22-39 yrs., n = 7)) [nmol/kg/min] | Metabolic Rate Index, STIM (difference between ACE+ and BASAL) (oxoprolinase [1]; ALL (22-73 yrs., n = 12)) [nmol/kg/min] | Metabolic Rate Index, STIM (difference between ACE+ and BASAL) (oxoprolinase [1]; OLD (53-73 yrs., n = 5)) [nmol/kg/min] | Metabolic Rate Index, STIM (difference between ACE+ and BASAL) (oxoprolinase [1]; YOUNG (22-39 yrs., n = 7)) [nmol/kg/min] | Metabolic Rate Index, BASAL (oxoprolinase [1]; ALL (22-73 yrs., n = 12)) [nmol/kg/min] | Metabolic Rate Index, BASAL (oxoprolinase [1]; OLD (53-73 yrs., n = 5)) [nmol/kg/min] | Metabolic Rate Index, BASAL (oxoprolinase [1]; YOUNG (22-39 yrs., n = 7)) [nmol/kg/min] | SMILES | action on oxoproline hydrolysis by oxoprolinase (oxoprolinase [2]) | Metabolic Response Index (MRI), BASAL [3] | LI, load tolerance index (BASAL minus MET+) [4]
1 | 515 ± 227 | 452 ± 161 | 547 ± 269 | 208 ± 82 | 117 ± 40 | 261 ± 115 | 307 ± 108 | 335 ± 110 | 286 ± 111 | O=C(O)[C@@H]1CS[13C](=O)N1 [OTC, L-2-oxo[^13C]thiazolidine-4-carboxylic acid] | competitive inhibitor of oxoproline hydrolysis |  | 
2 |  |  |  |  |  |  |  |  |  | CCOC(=O)[C@@H]1CCSC(=O)N1 [Homocysteine Metaprobe, L-2-oxo-tetrahydro-1,3-thiazine-4-carboxylic acid ethyl ester] |  | 85 +/− 14 (n = 4) MicroMol/kg/hr. | 57 +/− 24 (n = 4) MicroMol/kg/hr.

— patent US6610270B1, “In vivo determination of metabolic function for use in therapy management” (Xanthus Life Sciences, Inc., priority 1998, dated 2003)
